{"source": "patent EP0490590A1", "about": "“New benzodiazepine analogs” (MERCK & CO. INC., priority 1990, dated 1992)", "key": {"[1]": {"biological_target": "T1, CCK receptor (brain, cerebral cortex) (Cavia porcellus, UniProt H0VZC5)", "T1 construct": "Cerebral cortex was dissected and used as a receptor source; from tissue; host or cells: guinea pig cerebral cortex membranes", "T1 sequence (H0VZC5 entry or part of it)": "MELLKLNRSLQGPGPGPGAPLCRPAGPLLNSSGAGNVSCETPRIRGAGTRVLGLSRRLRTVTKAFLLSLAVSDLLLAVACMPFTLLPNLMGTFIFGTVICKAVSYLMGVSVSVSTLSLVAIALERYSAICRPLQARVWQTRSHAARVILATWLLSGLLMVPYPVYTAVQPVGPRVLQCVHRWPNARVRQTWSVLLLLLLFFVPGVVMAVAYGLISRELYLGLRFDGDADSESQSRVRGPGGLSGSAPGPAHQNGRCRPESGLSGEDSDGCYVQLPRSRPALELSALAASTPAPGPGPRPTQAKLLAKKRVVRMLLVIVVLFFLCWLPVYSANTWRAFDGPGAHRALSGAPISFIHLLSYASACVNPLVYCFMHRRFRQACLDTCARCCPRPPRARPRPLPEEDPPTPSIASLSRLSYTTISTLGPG", "assay": "CCK Receptor Binding (Brain), 125I-CCK-33", "settings": "inhibition of 125I-CCK-33 binding, guinea pig cerebral cortex membranes, 25°C, 2 hours", "protocol": "2. CCK Receptor Binding (Brain)\nCCK-33 was radiolabeled and the binding was performed according to the description for the pancreas method with modifications according to Saito et al., J. Neurochem. 37:483-490, 1981.\nMale Hartley guinea pigs (300-500g) were sacrificed by decapitation and the brains were removed and placed in ice-cold 50 mM, Tris HCl plus 7.58 g/l Trizma-7.4 (ph 7.4 at 25°C). Cerebral cortex was dissected and used as a receptor source. Each gram of fresh guinea pig brain tissue was homogenized in 10 ml of Tris/Trizma buffer with a Brinkman polytron PT-10. The homogenates were centrifuged at 42,000 g for 15 minutes. Pellets were resuspended in Tris Buffer, centrifuged as above and resuspended in 200 volumes of binding assay buffer (10 mM N-2-hydroxyethyl-piperazine-N′-2-ethane sulfonic acid (HEPES), 5 mM MgCl₂, 0.25 mg/ml bacitracin, 1 mM ethylene glycol-bis-(β-aminoethylether-N,N′-tetraacetic acid) (EGTA), and 0.4% bovine serum albumin (BSA)). […] The supernatant was aspirated and discarded, pellets were counted with a Beckman gamma 5000."}, "CCK receptor (pancreas)": {"biological_target": "T2, CCK receptor (pancreas) (Rattus norvegicus, UniProt P30551)", "T2 construct": "The whole pancreas was dissected free of fat tissue and was homogenized; from tissue; host or cells: rat whole pancreas membrane homogenate", "T2 sequence (P30551 1-444)": "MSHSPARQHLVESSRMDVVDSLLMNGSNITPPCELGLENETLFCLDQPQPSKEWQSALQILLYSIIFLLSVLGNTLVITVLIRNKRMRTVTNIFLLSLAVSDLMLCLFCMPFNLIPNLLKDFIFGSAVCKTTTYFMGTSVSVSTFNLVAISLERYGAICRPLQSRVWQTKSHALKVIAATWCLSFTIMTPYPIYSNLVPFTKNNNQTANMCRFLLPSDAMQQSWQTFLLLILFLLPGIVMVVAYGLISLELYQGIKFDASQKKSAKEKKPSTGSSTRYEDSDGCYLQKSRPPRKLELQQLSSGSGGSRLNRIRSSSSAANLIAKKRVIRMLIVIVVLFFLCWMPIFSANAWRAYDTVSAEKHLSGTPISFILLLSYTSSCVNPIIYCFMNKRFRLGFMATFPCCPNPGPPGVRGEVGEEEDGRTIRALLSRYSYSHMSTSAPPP", "assay": "CCK Receptor Binding (Pancreas), 125I-CCK-33", "settings": "inhibition of 125I-CCK-33 binding, rat pancreas membranes, 37°C, 30 minutes", "protocol": "1. CCK Receptor Binding (Pancreas)\nCCK-33 was radiolabeled with ¹²⁵I-Bolton Hunter reagent (2000 Ci/mmole) as described by Sankara et al. (J. Biol. Chem. 254: 9349-9351, 1979). Receptor binding was performed according to Innis and Snyder (Proc. Natl. Acad. Sci. 77, 6917-6921, 1980) with the minor modification of adding the additional protease inhibitors, phenylmethane sulfonyl fluoride and o-phenanthroline. The latter two compounds have no effect on the ¹²⁵I-CCK receptor binding assay.\nMale Sprague-Dawley rats (200-350g) were sacrificed by decapitation. The whole pancreas was dissected free of fat tissue and was homogenized in 20 volumes of ice-cold 50 mM, Tris HCl (pH 7.7 at 25°C) with a Brinkmann Polytron PT 10. The homogenates were centrifuged at 48,000 g for 10 min. Pellets were resuspended in Tris Buffer, centrifuged as above and resuspended in 200 volumes of binding assay buffer (50 mM Tris HCl, pH 7.7 at 25°C, 5 mM dithiothrietol, 0.1 mM bacitracin, 1.2 mM phenylmethane sulfonyl fluoride and 0.5 mM o-phenanthroline). […] The supernatant was aspirated and discarded, pellets were counted with a Beckman gamma 5000. […]"}}, "data": [{"smiles": "CN1C(=O)C(NC(=O)c2cc3cc(O)ccc3[nH]2)N=C(c2ccccc2)c2ccccc21", "note": "(centres unmarked) [Example 15, 1,3-Dihydro-3-(5-hydroxyindole-2-carbonylamino)-1-methyl-5-phenyl-2H-1,4-benzodiazepin-2-one]", "values": [{"measurement": "IC50", "setting": "[1]", "value": 0.91, "unit": "µM"}, {"measurement": "IC50", "setting": "CCK receptor (pancreas)", "value": 0.0033, "unit": "µM"}]}]}
